Source: US8791107B2, “N-substituted oxazinopteridines and oxazinopteridinones” (Takeda Pharmaceutical Company Limited, priority 2011, dated 2014)

What follows are molecules tested against T1, PI3Kδ (Homo sapiens, UniProt O00329) (assay: PI3Kδ inhibition, modified PIK3CD Adapta TR-FRET assay). Conditions: recombinant GST-tagged full length PIK3CD co-expressed with PIK3R1 (p85α); 2 μM ATP, 50 μM PIP2; read-out: PI3Kδ Inhibition (pIC50) (converted).
T1 construct: The protein is full length and co-expressed with untagged PIK3R1; GST; purchased Invitrogen PV5274
Type: biochemical
Summary of the method: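 Full-length GST-PIK3CD co-expressed with p85α was run in 50 mM HEPES pH 7.5, 3 mM MgCl2, 1 mM EGTA, 100 mM NaCl, 0.03% CHAPS, 2 mM DTT, 1% DMSO, with 12-point compound titrations. Reactions at room temperature were started with solution containing 2 μM ATP and 50 μM PIP2. ADP was detected by Adapta TR-FRET (620 nm-ratioed).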

T1 sequence (O00329 whole entry): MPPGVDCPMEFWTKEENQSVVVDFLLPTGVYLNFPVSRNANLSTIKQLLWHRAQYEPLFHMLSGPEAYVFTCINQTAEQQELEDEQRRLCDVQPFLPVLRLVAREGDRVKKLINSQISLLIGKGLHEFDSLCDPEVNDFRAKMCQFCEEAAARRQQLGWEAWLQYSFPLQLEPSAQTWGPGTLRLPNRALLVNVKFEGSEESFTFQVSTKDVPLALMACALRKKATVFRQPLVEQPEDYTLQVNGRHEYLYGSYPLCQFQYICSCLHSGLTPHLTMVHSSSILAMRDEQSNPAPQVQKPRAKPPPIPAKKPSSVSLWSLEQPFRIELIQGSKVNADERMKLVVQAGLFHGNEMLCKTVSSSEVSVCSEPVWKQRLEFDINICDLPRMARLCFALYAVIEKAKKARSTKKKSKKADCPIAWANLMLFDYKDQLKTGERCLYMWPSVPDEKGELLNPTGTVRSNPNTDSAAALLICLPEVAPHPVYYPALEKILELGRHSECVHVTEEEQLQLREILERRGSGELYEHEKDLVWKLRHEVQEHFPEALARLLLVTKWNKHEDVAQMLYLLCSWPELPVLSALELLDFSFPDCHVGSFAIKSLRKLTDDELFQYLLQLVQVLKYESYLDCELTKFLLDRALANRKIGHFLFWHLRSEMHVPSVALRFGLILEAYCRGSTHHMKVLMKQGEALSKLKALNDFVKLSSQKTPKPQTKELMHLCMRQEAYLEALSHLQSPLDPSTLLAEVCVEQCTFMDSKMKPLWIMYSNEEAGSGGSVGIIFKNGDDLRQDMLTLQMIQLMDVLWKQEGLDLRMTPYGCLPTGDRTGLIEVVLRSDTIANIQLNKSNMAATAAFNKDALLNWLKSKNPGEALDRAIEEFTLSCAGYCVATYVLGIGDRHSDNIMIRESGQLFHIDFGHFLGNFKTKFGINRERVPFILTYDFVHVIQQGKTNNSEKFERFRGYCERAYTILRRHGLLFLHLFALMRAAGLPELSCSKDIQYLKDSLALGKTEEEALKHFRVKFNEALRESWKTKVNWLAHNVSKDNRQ
T1 sequence (P27986 whole entry partner): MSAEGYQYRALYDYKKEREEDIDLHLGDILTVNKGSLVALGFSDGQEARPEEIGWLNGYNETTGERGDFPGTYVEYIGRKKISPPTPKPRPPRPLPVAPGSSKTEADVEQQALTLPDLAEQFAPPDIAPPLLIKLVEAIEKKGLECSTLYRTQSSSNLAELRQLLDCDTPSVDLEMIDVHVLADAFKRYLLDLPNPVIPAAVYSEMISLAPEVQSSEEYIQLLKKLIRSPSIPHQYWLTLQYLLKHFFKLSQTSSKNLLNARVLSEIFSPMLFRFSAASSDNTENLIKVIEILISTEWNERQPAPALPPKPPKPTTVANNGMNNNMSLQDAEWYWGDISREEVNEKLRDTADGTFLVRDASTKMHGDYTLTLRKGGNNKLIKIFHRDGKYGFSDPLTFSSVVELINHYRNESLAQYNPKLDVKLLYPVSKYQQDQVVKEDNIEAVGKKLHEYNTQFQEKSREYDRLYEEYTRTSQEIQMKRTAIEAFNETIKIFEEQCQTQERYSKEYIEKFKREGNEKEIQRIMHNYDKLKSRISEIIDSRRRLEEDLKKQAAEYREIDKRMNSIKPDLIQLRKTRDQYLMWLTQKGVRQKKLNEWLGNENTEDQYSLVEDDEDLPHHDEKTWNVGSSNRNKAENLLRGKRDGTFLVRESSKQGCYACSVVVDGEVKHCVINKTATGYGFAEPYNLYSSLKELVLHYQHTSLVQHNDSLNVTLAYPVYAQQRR

Structure (SMILES) | IC50 [nM]
CCc1nnc(CN2C[C@@H]3COCCN3c3nc(-c4cccc(CO)c4)ncc32)o1 [Example 172, (R)-(3-(5-((5-ethyl-1,3,4-oxadiazol-2-yl)methyl)-5,6,6a,7,9,10-hexahydro-[1,4]oxazino[3,4-h]pteridin-2-yl)phenyl)methanol] | 5.01
O=C1C2COCCN2c2nc(-c3cccc4[nH]ccc34)ncc2N1Cc1ccccc1 (stereo not drawn) [Example 145, 5-benzyl-2-(1H-indol-4-yl)-6a,7,9,10-tetrahydro-[1,4]oxazino[3,4-h]pteridin-6(5H)-one] | 25.1
CS(=O)(=O)c1ccc(CN2C(=O)C3COCCN3c3nc(-c4ccc5[nH]ccc5c4)ncc32)cc1 (stereo not drawn) [Example 127, 2-(1H-indol-5-yl)-5-(4-(methylsulfonyl)benzyl)-6a,7,9,10-tetrahydro-[1,4]oxazino[3,4-h]pteridin-6(5H)-one] | 126
c1cc(-c2ncc3c(n2)N2CCOCC2CN3)c2cc[nH]c2n1 (stereo not drawn) [Example 15, 2-(1H-pyrrolo[2,3-b]pyridin-4-yl)-5,6,6a,7,9,10-hexahydro-[1,4]oxazino[3,4-h]pteridine] | 398
CS(=O)(=O)c1ccc(CN2CC3COCCN3c3nc(-c4cnc5cc[nH]c5c4)ncc32)cc1 (stereo not drawn) [Example 24, 5-(4-(methylsulfonyl)benzyl)-2-(1H-pyrrolo[3,2-b]pyridin-6-yl)-5,6,6a,7,9,10-hexahydro-[1,4]oxazino[3,4-h]pteridine] | 63.1
Oc1cc2c(-c3ncc4c(n3)N3CCOCC3CN4)cccc2[nH]1 (stereo not drawn) [Example 12, 4-(5,6,6a,7,9,10-hexahydro-[1,4]oxazino[3,4-h]pteridin-2-yl)-1H-indol-2-ol] | 7940
CC(=O)Nc1ccccc1-c1ncc2c(n1)N1CCOCC1C(=O)N2Cc1ccc(S(C)(=O)=O)cc1 (stereo not drawn) [Example 104, N-(2-(5-(4-(methylsulfonyl)benzyl)-6-oxo-5,6,6a,7,9,10-hexahydro-[1,4]oxazino[3,4-h]pteridin-2-yl)phenyl)acetamide] | 200
Cn1nccc1-c1ncc2c(n1)N1CCOC[C@H]1CN2CC(=O)NCC1CCOCC1 [Example 225, (R)-2-(2-(1-methyl-1H-pyrazol-5-yl)-6a,7,9,10-tetrahydro-[1,4]oxazino[3,4-h]pteridin-5(6H)-yl)-N-((tetrahydro-2H-pyran-4-yl)methyl)acetamide] | 1580
CNC(=O)Nc1ccc(-c2ncc3c(n2)N2CCOCC2C(=O)N3Cc2cccc(-n3cccc3)c2)cc1 (stereo not drawn) [Example 90, 1-(4-(5-(3-(1H-pyrrol-1-yl)benzyl)-6-oxo-5,6,6a,7,9,10-hexahydro-[1,4]oxazino[3,4-h]pteridin-2-yl)phenyl)-3-methylurea] | 5.01
O=C1Nc2cnc(-c3cccc4[nH]cnc34)nc2N2CCOCC12 (stereo not drawn) [Example 152, 2-(1H-benzo[d]imidazol-4-yl)-6a,7,9,10-tetrahydro-[1,4]oxazino[3,4-h]pteridin-6(5H)-one] | 501
CC(C)(O)CCN1C[C@@H]2COCCN2c2nc(-c3cccc(CO)c3)ncc21 [Example 171, (R)-4-(2-(3-(hydroxymethyl)phenyl)-6a,7,9,10-tetrahydro-[1,4]oxazino[3,4-h]pteridin-5(6H)-yl)-2-methylbutan-2-ol] | 3.16
CS(=O)(=O)c1ccc(CN2C(=O)C3COCCN3c3nc(-c4cccc5[nH]cnc45)ncc32)cc1 (stereo not drawn) [Example 139, 2-(1H-benzo[d]imidazol-4-yl)-5-(4-(methylsulfonyl)benzyl)-6a,7,9,10-tetrahydro-[1,4]oxazino[3,4-h]pteridin-6(5H)-one] | 79.4
CNC(=O)Nc1ccc(-c2ncc3c(n2)N2CCOCC2C(=O)N3C2CCc3ccc(Cl)cc32)cc1 (stereo not drawn) [Example 147, 1-(4-(5-(6-chloro-2,3-dihydro-1H-inden-1-yl)-6-oxo-5,6,6a,7,9,10-hexahydro-[1,4]oxazino[3,4-h]pteridin-2-yl)phenyl)-3-methylurea] | 20
CS(=O)(=O)c1ccc(CN2C(=O)C3COCCN3c3nc(-c4c[nH]c5ncccc45)ncc32)cc1 (stereo not drawn) [Example 137, 5-(4-(methylsulfonyl)benzyl)-2-(1H-pyrrolo[2,3-b]pyridin-3-yl)-6a,7,9,10-tetrahydro-[1,4]oxazino[3,4-h]pteridin-6(5H)-one] | 501
CNC(=O)Nc1ccc(-c2ncc3c(n2)N2CCOCC2C(=O)N3Cc2ccc(C(=O)OC)cc2)cc1 (stereo not drawn) [Example 88, methyl 4-((2-(4-(3-methylureido)phenyl)-6-oxo-6a,7,9,10-tetrahydro-[1,4]oxazino[3,4-h]pteridin-5(6H)-yl)methyl)benzoate] | 6.31
CS(=O)(=O)c1ccc(CN2CC3COCCN3c3nc(-c4cnc5[nH]ccc5c4)ncc32)cc1 (stereo not drawn) [Example 25, 5-(4-(methylsulfonyl)benzyl)-2-(1H-pyrrolo[2,3-b]pyridin-5-yl)-5,6,6a,7,9,10-hexahydro-[1,4]oxazino[3,4-h]pteridine] | 158
CNC(=O)Nc1ccc(-c2ncc3c(n2)N2CCOC[C@H]2CN3CC(=O)NCC2CCOCC2)cc1 [Example 222, (R)-2-(2-(4-(3-methylureido)phenyl)-6a,7,9,10-tetrahydro-[1,4]oxazino[3,4-h]pteridin-5(6H)-yl)-N-((tetrahydro-2H-pyran-4-yl)methyl)acetamide] | 31.6

More lines, now with the values ahead:

IC50 [nM] | Structure (SMILES)
12.6 | c1csc(-c2nnc(CN3CC4COCCN4c4nc(-c5cccc6[nH]ccc56)ncc43)o2)c1 (stereo not drawn) [Example 33, 2-(1H-indol-4-yl)-5-((5-(thiophen-2-yl)-1,3,4-oxadiazol-2-yl)methyl)-5,6,6a,7,9,10-hexahydro-[1,4]oxazino[3,4-h]pteridine]
12.6 | O=C(CCN1CC2COCCN2c2nc(-c3cccc4[nH]ccc34)ncc21)NCc1ccco1 (stereo not drawn) [Example 34, 3-(2-(1H-indol-4-yl)-6a,7,9,10-tetrahydro-[1,4]oxazino[3,4-h]pteridin-5(6H)-yl)-N-(furan-2-ylmethyl)propanamide]
50.1 | c1cc(-c2ncc3c(n2)N2CCOCC2CN3)c2cc[nH]c2c1 (stereo not drawn) [Example 2, 2-(1H-indol-4-yl)-5,6,6a,7,9,10-hexahydro-[1,4]oxazino[3,4-h]pteridine]
398 | CC(C)(C#N)NC(=O)CN1C[C@@H]2COCCN2c2nc(-c3cccc4[nH]ccc34)ncc21 [Example 208, (R)-2-(2-(1H-indol-4-yl)-6a,7,9,10-tetrahydro-[1,4]oxazino[3,4-h]pteridin-5(6H)-yl)-N-(2-cyanopropan-2-yl)acetamide]
251 | O=C(CN1C[C@@H]2COCCN2c2nc(-c3cccc4[nH]ccc34)ncc21)NC1CC1 [Example 207, (R)-2-(2-(1H-indol-4-yl)-6a,7,9,10-tetrahydro-[1,4]oxazino[3,4-h]pteridin-5(6H)-yl)-N-cyclopropylacetamide]
7.94 | OC1CCC(N2C[C@@H]3COCCN3c3nc(-c4cccc5[nH]ccc45)ncc32)CC1 (stereo partly drawn) [Example 189, (R)-4-(2-(1H-indol-4-yl)-6a,7,9,10-tetrahydro-[1,4]oxazino[3,4-h]pteridin-5(6H)-yl)cyclohexanol]
126 | c1cc(-c2ncc3c(n2)N2CCOCC2CN3Cc2nnnn2C2CC2)c2cc[nH]c2c1 (stereo not drawn) [Example 36, 5-((1-cyclopropyl-1H-tetrazol-5-yl)methyl)-2-(1H-indol-4-yl)-5,6,6a,7,9,10-hexahydro-[1,4]oxazino[3,4-h]pteridine]
398 | CC(C)(O)CNC(=O)CN1C[C@@H]2COCCN2c2nc(-c3cccc4[nH]ccc34)ncc21 [Example 71, (R)-2-(2-(1H-indol-4-yl)-6a,7,9,10-tetrahydro-[1,4]oxazino[3,4-h]pteridin-5(6H)-yl)-N-(2-hydroxy-2-methylpropyl)acetamide]
50.1 | N#Cc1ccccc1N1C[C@@H]2COCCN2c2nc(-c3cccc4[nH]ccc34)ncc21 [Example 186, (R)-2-(2-(1H-indol-4-yl)-6a,7,9,10-tetrahydro-[1,4]oxazino[3,4-h]pteridin-5(6H)-yl)benzonitrile]
5.01 | CS(=O)(=O)c1ccc(CN2C[C@@H]3COCCN3c3nc(-c4cccc5[nH]ccc45)ncc32)cc1 [Example 29, (R)-2-(1H-indol-4-yl)-5-(4-(methylsulfonyl)benzyl)-5,6,6a,7,9,10-hexahydro-[1,4]oxazino[3,4-h]pteridine]
251 | O=C(Cc1ccsc1)N1CC2COCCN2c2nc(-c3cccc4[nH]ccc34)ncc21 (stereo not drawn) [Example 51, 1-(2-(1H-indol-4-yl)-6a,7,9,10-tetrahydro-[1,4]oxazino[3,4-h]pteridin-5(6H)-yl)-2-(thiophen-3-yl)ethanone]
316 | NC(=O)c1ccc(F)cc1CN1CC2COCCN2c2nc(-c3cccc4[nH]ccc34)ncc21 (stereo not drawn) [Example 75, 2-((2-(1H-indol-4-yl)-6a,7,9,10-tetrahydro-[1,4]oxazino[3,4-h]pteridin-5(6H)-yl)methyl)-4-fluorobenzamide]
5.01 | c1cc(-c2ncc3c(n2)N2CCOCC2CN3CC2CC2)c2cc[nH]c2c1 (stereo not drawn) [Example 3, 5-(cyclopropylmethyl)-2-(1H-indol-4-yl)-5,6,6a,7,9,10-hexahydro-[1,4]oxazino[3,4-h]pteridine]
158 | Cc1ccc(C(N)=O)c(CN2CC3COCCN3c3nc(-c4cccc5[nH]ccc45)ncc32)c1 (stereo not drawn) [Example 228, 2-((2-(1H-indol-4-yl)-6a,7,9,10-tetrahydro-[1,4]oxazino[3,4-h]pteridin-5(6H)-yl)methyl)-4-methylbenzamide]
200 | O=C(CN1C[C@@H]2COCCN2c2nc(-c3cccc4[nH]ccc34)ncc21)NCC1CC1 [Example 70, (R)-2-(2-(1H-indol-4-yl)-6a,7,9,10-tetrahydro-[1,4]oxazino[3,4-h]pteridin-5(6H)-yl)-N-(cyclopropylmethyl)acetamide]
501 | N[C@H]1CC[C@H](CN2CC3COCCN3c3nc(-c4cccc5[nH]ccc45)ncc32)CC1 (stereo partly drawn) [Example 58, (1r,4r)-4-((2-(1H-indol-4-yl)-6a,7,9,10-tetrahydro-[1,4]oxazino[3,4-h]pteridin-5(6H)-yl)methyl)cyclohexanamine]
